{"source": "patent US20230142062A1", "about": "“THE APPLICATION OF ALOESIN IN THE PREPARATION OF PRODUCTS FOR PREVENTING OR TREATING OBESITY” (HAINAN MEDICAL UNIVERSITY, priority 2020, published 2023)", "type_in_all_cases": "cell-based, mouse", "key": {"[1]": {"test_system": "3T3-L1 preadipocytes", "assay": "MTT cell viability of 3T3-L1 preadipocytes", "details": "15 and 30 μM aloesin, 24 h and 48 h", "experimental": "(§1) Mouse 3T3-L1 preadipocytes were inoculated with high glucose culture medium (H-DMEM, Hyclon) containing 10% fetal bovine serum (Gibco) and antibiotics (100 U/mL penicillin G and […] streptomycin) at a density of 1×10^4 /mL in an incubator at 37° C. and 5% CO2 for 72 hours. In order to induce the differentiation of 3T3-L1 preadipocytes, when 80% cells are fused, on day 0, growth medium (GM) containing 10% fetal bovine serum, 10 μg/mL insulin (sigma), 1 μM dexamethasone (sigma), 0.5 mM isobutyl-1-Methylxanthine (sigma) was added therein. On the second day, the medium was replaced with a high-glycemic medium containing 10% calf serum and 10 μg/mL insulin. On the 10th day, a large number of lipid droplets accumulated during the differentiation of pre-adipocytes.\nCell viability was determined by MTT, 3T3-L1 preadipocytes were seeded in 96-well plates at a density of 1×10^4 /mL, cultured in an incubator for 24 hours, and then replaced with a medium respectively containing 10, 15, 30 and 60 μM aloesin to continuously cultivate for 24 h or 48 h. 0.5% MTT was added to the cells, after incubating for 1 hour at 37° C., the MTT solution was removed, and DMSO was added to dissolve. The absorbance at 570 nm was measured using an enzyme-labeled instrument (Molecular Devices, CA, USA). Cell viability (%) is expressed as a percentage relative to untreated control cells."}, "[2]": {"test_system": "3T3-L1 preadipocytes", "assay": "Differentiation of preadipocytes after aloesin pretreatment (Oil Red O staining)", "details": "pretreated with 15 and 30 μM for 24 h and 48 h, then differentiated for 10 days", "experimental": "as §1\n(§2) The differentiated adipocytes were washed 3 times with PBS, fixed with 10% formaldehyde for 1 hour, then washed 3 times with PBS again, dried for 15 to 30 minutes and stained with Oil Red O working solution for 2 hours. Wash 2 times and 3 times with 60% isopropanol (IPA) and double distilled water respectively. A Zeiss fluorescence microscope (Tokyo, Japan) was used to collect images. 100% IPA extracts Oil Red O, and the absorbance at 490 nm was measured.\n3T3-L1 pre-adipocytes were pre-incubated by the aloesin with concentration of 15 and 30 μM for 24 h and 48 h, respectively. […]"}, "[3]": {"test_system": "3T3-L1 adipocytes", "assay": "Lipid accumulation in 3T3-L1 adipocytes (Oil Red O staining)", "details": "15 and 30 μM", "experimental": "as §1, §2\nAfter 3T3-L1 preadipocytes were induced to differentiate into adipocytes, aloesin (15 and 30 μM) was added to the adipocytes and cultured for 24 h and 48 h respectively."}, "[4]": {"test_system": "UCP-1", "assay": "Real-time quantitative PCR, UCP-1 mRNA in 3T3-L1 adipocytes", "details": "qPCR", "experimental": "(§3) Total RNA extraction reagent (TIANGEN, China) was used to extract total RNA from 3T3-L1 adipocytes. Use 1st strand cDNA kit (Vazyme biotechnology) for reverse transcription into cDNA. SYBR Green PCR Master Mix Kit (Monad, China) reagent and CFX-1000 Touch instrument ([…]) were used to detect the mRNA level of adipocyte browning genes (Ucp-1 and PRDM16) and transcription factors (Fabp, Ppar-γ and C-EBPα). The following conditions were used for reverse transcription: 5 min at 25° C., 15 min at 50° C., and 5 min at 85° C. Amplification: initial denaturation at 95° C. for 30 seconds, followed by denaturation at 95° C. for 5 seconds and 59° C. for 30 seconds (40 cycles). The β-actin was used as a reference gene to standardize the qPCR reaction. The relative expression of genes was calculated based on the average Ct value between samples. Relative expression level=2^{[Cttarget gene−Ct (β-actin)]aloesin treatment group−[Cttarget gene−Ct(β-actin)] 3T3-L1adipocyte]}."}, "[5]": {"test_system": "PRDM16", "assay": "Real-time quantitative PCR, PRDM16 mRNA in 3T3-L1 adipocytes", "details": "qPCR", "experimental": "as §3"}, "[6]": {"test_system": "C-EBPα", "assay": "Real-time quantitative PCR, C-EBPα mRNA in 3T3-L1 adipocytes", "details": "15 and 30 μM, qPCR", "experimental": "as §3"}, "[7]": {"test_system": "FABP", "assay": "Real-time quantitative PCR, FABP mRNA in 3T3-L1 adipocytes", "details": "15 and 30 μM, qPCR", "experimental": "as §3"}, "[8]": {"test_system": "PPAR-γ", "assay": "Real-time quantitative PCR, PPAR-γ mRNA in 3T3-L1 adipocytes", "details": "15 and 30 μM, qPCR", "experimental": "as §3"}, "[9]": {"test_system": "adiponectin", "assay": "Real-time quantitative PCR, adiponectin mRNA in 3T3-L1 adipocytes", "details": "15 μM, qPCR"}, "[10]": {"test_system": "adiponectin", "assay": "ELISA, adiponectin in supernatant of 3T3-L1 adipocytes", "details": "15 μM, 48 hours", "experimental": "(§4) The 3T3-L1 adipocytes were treated with aloesin for 48 hours, then the supernatant was collected, and the levels of adiponectin and IL-1β in the supernatant were detected with an ELISA kit (Proteintech, China). The ELISA reagent operation was carried out according to the manufacturer's instructions."}, "[11]": {"test_system": "IL-1β", "assay": "ELISA, IL-1β in supernatant of 3T3-L1 adipocytes", "details": "15 and 30 μM, 48 hours", "experimental": "as §4"}}, "data": [{"smiles": "CC(=O)Cc1cc(=O)c2c(C)cc(O)c([C@@H]3O[C@H](CO)[C@@H](O)[C@H](O)[C@H]3O)c2o1", "note": "[aloesin]", "values": [{"measurement": "pre-adipocytes viability", "setting": "[1]", "result": "did not influence"}, {"measurement": "differentiation of 3T3-L1 preadipocytes", "setting": "[2]", "result": "did not affect"}, {"measurement": "lipid accumulation of adipocytes", "setting": "[3]; 48 h, compared with the control group", "result": "significantly reduce"}, {"measurement": "lipid accumulation in 3T3-L1 adipocytes", "setting": "[3]; treatment for 24 hours", "result": "did not affect"}, {"measurement": "expression of browning gene UCP-1 (mRNA)", "setting": "[4]", "result": "increase"}, {"measurement": "expression of browning gene PDRM16 (mRNA)", "setting": "[5]", "result": "increase"}, {"measurement": "expression of the transcription factor C-EBPα (mRNA)", "setting": "[6]", "result": "increase"}, {"measurement": "expression of FABP (mRNA)", "setting": "[7]", "result": "did not affect"}, {"measurement": "expression of PPAR-γ (mRNA)", "setting": "[8]", "result": "did not affect"}, {"measurement": "mRNA expression of adiponectin in adipocytes", "setting": "[9]", "result": "enhance"}, {"measurement": "release of adiponectin in adipocytes", "setting": "[10]", "result": "enhance"}, {"measurement": "release of IL-1β in adipocytes", "setting": "[11]", "result": "reduce"}]}]}
